Data reported in US20260132128A1, “COMPOUND FOR RECOVERING P53 MUTATION FUNCTION AND USE THEREOF” (SHENZHEN ZHONGGE BIOLOGICAL TECHNOLOGY CO., LTD., priority 2022, published 2026).
Marks after values point to notes of the source that are not given here.

Experiments:
NUGC-3 cells = test: NUGC-3 cell proliferation assay (CTG); format: cell-based, human; conditions: for Compound GI50 (nM)/Reference compound GI50 (nM): multiple ratio of GI50 of the compound to the reference compound; for GI50: Homo sapiens, NUGC-3, 144 h, 6 days, CTG
Experimental: In order to detect the inhibitory effect of the aforementioned compounds on the proliferation ability of NUGC-3 cells, 250 NUGC-3 cells (Nanjing Cobioer Biosciences Co., Ltd., CBP60492) were seeded into a 384-well plate (Corning 3765), 35 μL per well, and incubated overnight in a constant temperature incubator at 37° C. and 5% CO2. Then, 40 nL of the compound was added to the 384-well plate using an Echo 655 Liquid Handler, with a maximum final concentration of 10 μM, 1:3 serial dilutions, and a total of 10 doses. The culture was performed at 37° C. and 5% CO2 for 6 days. The plate was taken out from the incubator and equilibrated at room temperature for 10 minutes. 20 μL of CTG (Promage G7572) was added to each well of the plate according to the platemap. The plate was centrifuged at 1000 rpm for 1 min. The lysis of cells was induced by mixing on a shaker for 2 min. The plate was centrifuged at 1000 rpm for 1 min. Incubation was performed at room temperature for 10 min to stabilize luminescence signals. Luminescence values were recorded by Envision (PerkinElmer 2105-0020). GraphPad 9.0 was used to fit the inhibition rate and compound concentration into a nonlinear regression curve (dose response-variable slope) to calculate GI50, inhibition rate={1−(A−B)/(C−B)}*100%, A=signal value of compound; B=average signal of blank control; C=average signal of negative control (wherein negative control was 0.1% DMSO).

p53 Y220C [1] = biological target: T1, p53 Y220C (Homo sapiens, UniProt P04637, Y220C); test: DNA binding test (HTRF): binding of P53Y220C protein to DNA; format: biochemical; conditions: multiple ratio of EC50 of the compound to the reference compound, DNA binding test
T1 construct: a truncated mutant containing only amino acids 94-312 of p53; made in house; host or cells: E. coli
Experimental: (§1) In order to detect the ability of the aforementioned compounds to increase the binding of P53Y220C protein to DNA, the binding activity of p53 Y220C was measured by homogeneous time-resolved fluorescence (HTRF). Recombinant His-tagged p53 Y220C for HTRF measurement was expressed in bacteria E. coli. The recombinant protein was a truncated mutant containing only amino acids 94-312 of p53, and its sequence was […] […] VEGNLR […] TFRh[…] […]. The sense strand of the DNA double strand was 5′-[…]-3′, with a biotin tag at the 5′ end for activity assay, and the antisense strand was 5′-[…]-3′ 40 mL of assay buffer (20 mM Tris HCL, pH 7.5, 50 mM NaCl, 2 mM MgCl2, 0.02% Tween 20, 0.01% BSA, 1 mM DTT) was prepared. 10 mM compound was prepared and subjected to 3-fold dilution to obtain 10 dose gradient dilutions of the compound. 20 nL of the compound was added to a 384-well assay plate (PerkinElmer 6007299) using an Echo 655 Liquid Handler. P53Y220C protein was dissolved in assay buffer to reach a final concentration of 150 nM, and 5 μL thereof was added to each well, and incubated at room temperature for 5 min. DNA was dissolved in assay buffer to reach a final concentration of 150 nM, and 5 μL thereof was added to each well, and incubated at room temperature for 15 min. Anti 6HIS-XL665 (Cisbio 61HISXLB) was dissolved in assay buffer to reach a final concentration of 20 nM, and 5 μL thereof was added to each well. Streptavidin-Eu cryptate (Cisbio 610SAKLA) was dissolved in assay buffer to reach a final concentration of 0.625 nM, and 5 μL thereof was added to each well, and incubated at 27° C. for 1 hour. The plate was then read for signal values on an Envision (PerkinElmer 2105-0020) plate reader at 665 nm and 615 nm, respectively. […] Activation rate={(A-C)/(C)}*100%, A=(signal value at 665 nm/signal value at 615 nm); C=average signal of negative control (wherein, negative control referred to 0.1% DMSO).

p53 Y220C [2] = biological target: T2, p53 Y220C (Homo sapiens, UniProt P04637, P309S/R273H/Y220C); test: as above; format: biochemical; conditions: HTRF, activation of p53 Y220C (aa 94-312) binding to biotin DNA
T2 construct: a truncated mutant containing only amino acids 94-312 of p53; made in house; host or cells: E. coli
Experimental: as §1

Structure (SMILES)	Compound GI50 (nM)/Reference compound GI50 (nM) (NUGC-3 cells)	Compound EC50 (nM)/Reference compound EC50 (nM) (p53 Y220C [1])	EC50 (p53 Y220C [2])	GI50 (NUGC-3 cells)
COc1cc(C(=O)NCC(F)F)ccc1NCC#Cc1nc2c(NC3CC[C@@H](N4CC5(COC5)C4)C[C@@H]3F)cccn2c1CC(F)(F)F (stereo partly drawn) [Compound 55]	C (C: GI50 of the compound ≥ 3 * GI50 of the reference compound)	B (B: EC50 of the reference compound<EC50 of the compound≤3.0*EC50 of the reference compound)	–	–
CNC(=O)c1ccc(NCC#Cc2nc3c(NC4CC[C@@H](N5CC6(COC6)C5)C[C@@H]4F)cccn3c2CC(F)(F)F)c(OC2COC2)c1 (stereo partly drawn) [Compound 60]	C (C: GI50 of the compound ≥ 3 * GI50 of the reference compound)	B (B: EC50 of the reference compound<EC50 of the compound≤3.0*EC50 of the reference compound)	–	–
CNC(=O)c1ccc(NCC#Cc2nc3c(NC4CC[C@@H](N5CC6(COC6)C5)C[C@@H]4F)cccn3c2CC(F)(F)F)c(OCC(F)F)c1 (stereo partly drawn) [Compound 62]	C (C: GI50 of the compound ≥ 3 * GI50 of the reference compound)	B (B: EC50 of the reference compound<EC50 of the compound≤3.0*EC50 of the reference compound)	–	–
COc1cc(C(=O)NC2CC(F)C2)ccc1NCC#Cc1nc2c(NC3CC[C@@H](N4CC5(COC5)C4)C[C@@H]3F)cccn2c1CC(F)(F)F (stereo partly drawn) [Compound 56]	C (C: GI50 of the compound ≥ 3 * GI50 of the reference compound)	C (C: EC50 of the compound≥3*EC50 of the reference compound)	–	–
CNC(=O)c1ccc(NCC#Cc2nc3c(NC4CC[C@@H](N5CC6(CCCCC6)C5)C[C@@H]4F)cccn3c2CC(F)(F)F)c(OC)c1 (stereo partly drawn) [Compound 45]	C (C: GI50 of the compound ≥ 3 * GI50 of the reference compound)	B (B: EC50 of the reference compound<EC50 of the compound≤3.0*EC50 of the reference compound)	–	–
CONC(=O)c1ccc(NCC#Cc2nc3c(N[C@@H]4CC[C@@H](N5CC6(COC6)C5)C[C@@H]4F)cccn3c2CC(F)(F)F)c(OC)c1 [Compound 53]	–	–	< 100 nM	–
CNC(=O)c1ccc(NCC#Cc2cc3c(NC4CC[C@@H](N5CC6(COC6)C5)C[C@@H]4F)cccn3c2CC(F)(F)F)c(OC)c1 (stereo partly drawn) [Compound 65]	A (A: GI50 of the compound ≤ GI50 of the reference compound)	B (B: EC50 of the reference compound<EC50 of the compound≤3.0*EC50 of the reference compound)	–	< 1000 nM
CNC(=O)c1ccc(NCC#Cc2nc3c(N[C@@H]4CC[C@@H](N5CC6(COC6)C5)C[C@@H]4F)cccn3c2CC(F)(F)F)c(OCF)c1 [Compound 58]	–	–	< 100 nM	–
CNC(=O)c1ccc(NCC#Cc2nc3c(NC4CC[C@@H](N5CC6(CCOCC6)C5)C[C@@H]4F)cccn3c2CC(F)(F)F)c(OC)c1 (stereo partly drawn) [Compound 46]	B (B: GI50 of the reference compound < GI50 of the compound ≤ 3.0 * GI50 of the reference compound)	A (A: EC50 of the compound≤EC50 of the reference compound)	–	< 1000 nM
COc1cc(NCC#Cc2nc3c(NC4CCN(C)CC4)cccn3c2CC(F)(F)F)c(NC(C)=O)cn1 [Compound 26]	C (C: GI50 of the compound ≥ 3 * GI50 of the reference compound)	C (C: EC50 of the compound≥3*EC50 of the reference compound)	–	–
CNC(=O)c1ccc(NCC#Cc2cc3c(NC4CC[C@@H](N5CC6(COC6)C5)C[C@@H]4F)ccnn3c2CC(F)(F)F)c(OC)c1 (stereo partly drawn) [Compound 68]	C (C: GI50 of the compound ≥ 3 * GI50 of the reference compound)	C (C: EC50 of the compound≥3*EC50 of the reference compound)	–	–
CNC(=O)c1ccc(NCC#Cc2nc3c(N[C@@H]4CCC(N5CCCCC5)C[C@@H]4F)cccn3c2CC(F)(F)F)c(OC)c1 (stereo partly drawn) [Compound 43]	C (C: GI50 of the compound ≥ 3 * GI50 of the reference compound)	C (C: EC50 of the compound≥3*EC50 of the reference compound)	–	–
CONC(=O)c1ccc(NCC#Cc2nc3c(NC4CC[C@@H](N5CC6(COC6)C5)C[C@@H]4F)cccn3c2CC(F)(F)F)c(OC)c1 (stereo partly drawn) [Compound 53]	C (C: GI50 of the compound ≥ 3 * GI50 of the reference compound)	A (A: EC50 of the compound≤EC50 of the reference compound)	–	< 1000 nM
CNC(=O)c1ccc(NCC#Cc2cc3c(N[C@@H]4CCN(C)C[C@@H]4F)ccnn3c2CC(F)(F)F)c(OC)c1 [Compound 85]	C (C: GI50 of the compound ≥ 3 * GI50 of the reference compound)	C (C: EC50 of the compound≥3*EC50 of the reference compound)	–	–
CNC(=O)c1ccc(NCC#Cc2nc3c(N[C@@H]4CC[C@@H](N5CC6(COC6)C5)C[C@@H]4F)cccn3c2CC(F)(F)F)c(OC2CC2)c1 [Compound 57]	–	–	< 100 nM	–
CNC(=O)c1ccc(NCC#Cc2nc3c(N[C@@H]4CC[C@@H](N5CCCC5)C[C@@H]4F)cccn3c2CC(F)(F)F)c(OC)c1 [Compound 41]	–	–	< 100 nM	–
CNC(=O)c1ccc(NCC#Cc2nc3c(N[C@@H]4CC[C@@H](N5CC6(CCC6)C5)C[C@@H]4F)cccn3c2CC(F)(F)F)c(OC)c1 [Compound 42]	–	–	< 100 nM	–
CNC(=O)c1ccc(NCC#Cc2nc3c(NC4CC[C@@H](N5CC6(COC6)C5)C[C@@H]4F)cccn3c2CC(F)(F)F)c(OCC(F)(F)F)c1 (stereo partly drawn) [Compound 59]	C (C: GI50 of the compound ≥ 3 * GI50 of the reference compound)	B (B: EC50 of the reference compound<EC50 of the compound≤3.0*EC50 of the reference compound)	–	–
CNC(=O)c1ccc(NCC#Cc2nc3c(NC4CC[C@@H](N5CCCC5)C[C@@H]4F)cccn3c2CC(F)(F)F)c(OC)c1 (stereo partly drawn) [Compound 41]	B (B: GI50 of the reference compound < GI50 of the compound ≤ 3.0 * GI50 of the reference compound)	B (B: EC50 of the reference compound<EC50 of the compound≤3.0*EC50 of the reference compound)	–	< 1000 nM
CNC(=O)c1ccc(NCC#Cc2nc3c(NC4CC[C@@H](N5CC6(COC6)C5)C[C@@H]4F)cccn3c2CC(F)(F)F)c(OC2CCC2)c1 (stereo partly drawn) [Compound 61]	C (C: GI50 of the compound ≥ 3 * GI50 of the reference compound)	B (B: EC50 of the reference compound<EC50 of the compound≤3.0*EC50 of the reference compound)	–	–
CNC(=O)c1ccc(NCC#Cc2nc3c(NC4CC[C@@H](N5CC6(COC6)C5)C[C@@H]4F)cccn3c2CC(F)(F)F)c(OCCF)c1 (stereo partly drawn) [Compound 63]	C (C: GI50 of the compound ≥ 3 * GI50 of the reference compound)	B (B: EC50 of the reference compound<EC50 of the compound≤3.0*EC50 of the reference compound)	–	–
CNC(=O)c1ccc(NCC#Cc2nc3c(N[C@@H]4CC[C@@H](N5CC6(CCOCC6)C5)C[C@@H]4F)cccn3c2CC(F)(F)F)c(OC)c1 [Compound 46]	–	–	< 100 nM	–
